Results on 27 molecules are retold here after ChEMBL document CHEMBL3286299, “Synthesis and in vitro evaluation of 4-trichloromethylpyrrolo[1,2-a]quinoxalines as new antiplasmodial agents” (Eur J Med Chem, 2014).

Some results are limits rather than exact numbers.

A short description of data set [1]: Cytotoxicity against human HepG2 cells after 72 hrs by MTT assay. The data set is classed as cell-based.
Data set [2] can be described thus: Selectivity index, ratio of CC50 for human HepG2 cells to IC50 for Plasmodium falciparum W2. In kind it is functional.
The test system of data set [3] is Plasmodium falciparum. The experiment in a line: Antiplasmodial activity against chloroquine-, pyrimethamine- and proguanil-resistant Plasmodium falciparum K1 infected in human erythrocytes after 72 hrs by SYBR Green I fluorescence-based method. In kind it is functional, organism-based. The following applies: K1, 72 h.
Data set [4] in a line: Selectivity index, ratio of CC50 for human HepG2 cells to IC50 for chloroquine-, pyrimethamine- and proguanil-resistant Plasmodium falciparum K1 infected in human erythrocytes. The data set is classed as functional.

`ClC(Cl)(Cl)c1nc(-c2ccccc2)c2ccccc2n1`: the CC50 at 72 h in data set [1] was above 125 µM. Also, the “Ratio CC50/IC50” value in data set [2] was above 15.6.
In the case of `ClC(Cl)(Cl)c1nccc2ccccc12`, it took 180 µM to reach half-maximal cytotoxicity in data set [1] (CC50 at 72 h). The molecule also had a half-maximal inhibitory concentration (IC50) in data set [3] of 8 µM. For the same molecule, the “Ratio CC50/IC50” value in data set [4] worked out at 22.5.
Consider `ClC(Cl)(Cl)c1ncnc2ccccc12`, for which, in data set [1], the CC50 at 72 h was above 500 µM. Further, the half-inhibitory concentration (IC50) in data set [3] was above 50 µM.
Turning to `ClC(Cl)(Cl)c1ncc2ccccc2n1`, the half-maximal cytotoxic concentration (CC50) at 72 h in data set [1] was 61 µM. This molecule also displayed a concentration for half-maximal inhibition (IC50) in data set [3] of 17.6 µM. For the same molecule, the “Ratio CC50/IC50” value in data set [4] is 3.5.
Taken in the same sequence, the figures for `Cc1ncc2ccccc2n1` were 350 µM, above 50 µM and below 7.
In turn, `ClC(Cl)(Cl)c1cnc2ccccc2n1` had a 50% cytotoxic concentration (CC50) at 72 h in data set [1] of 3.1 µM. In data set [3], this molecule displayed an IC50 of 1.5 µM. Further, the “Ratio CC50/IC50” value in data set [4] is listed as 2.1.
Regarding `Cc1cnc2ccccc2n1`, in data set [1], the cytotoxic concentration (CC50) at 72 h was above 500 µM. This molecule also showed an IC50 in data set [3] above 50 µM.
`ClC(Cl)c1cnc2ccccc2n1` gave a half-maximal cytotoxic concentration (CC50) at 72 h in data set [1] of 19.3 µM. In data set [3], this molecule displayed a half-maximal inhibitory concentration (IC50) of 12.8 µM. The “Ratio CC50/IC50” value in data set [4] is on record as 1.5.
For `FC(F)(F)c1cnc2ccccc2n1`, the CC50 at 72 h in data set [1] was above 500 µM. Besides, the half-maximal inhibitory concentration (IC50) in data set [3] is above 50 µM.
Molecule `ClC(Cl)(Cl)c1nc2ccccc2nc1-c1ccccc1` yielded a CC50 at 72 h in data set [1] of 3.5 µM. The IC50 in data set [3] stood at 0.2 µM. The “Ratio CC50/IC50” value in data set [4] was found to be 17.5.
Taken in the same sequence, the figures for `ClC(Cl)(Cl)c1nc2ccccc2n2cccc12` were 41.2 µM, 1.5 µM and 27.5.
Taken in the same sequence, the figures for `Fc1ccc2c(c1)nc(C(Cl)(Cl)Cl)c1cccn12` were above 15 µM, 1.7 µM and above 8.8.
Taken in the same sequence, the figures for `Clc1ccc2c(c1)nc(C(Cl)(Cl)Cl)c1cccn12` were 9.8 µM, 1.6 µM and 6.1.
`ClC(Cl)(Cl)c1nc2cc(I)ccc2n2cccc12`: in data set [1], half-maximal cytotoxicity (CC50 at 72 h) was put at 6.6 µM. This molecule yielded a concentration for half-maximal inhibition (IC50) in data set [3] of 1.2 µM. Also, in data set [4], the “Ratio CC50/IC50” value is listed as 5.5.
On to `Cc1ccc2c(c1)nc(C(Cl)(Cl)Cl)c1cccn12`, for which the half-maximal cytotoxic concentration (CC50) at 72 h in data set [1] stood at 53 µM. In data set [3], this molecule yielded an IC50 of 2.4 µM. For the same molecule, the “Ratio CC50/IC50” value in data set [4] is recorded as 22.1.
As for `COc1ccc2c(c1)nc(C(Cl)(Cl)Cl)c1cccn12`, the 50% cytotoxic concentration (CC50) at 72 h in data set [1] worked out at 35 µM. In data set [3], 4.2 µM corresponded to half-maximal inhibition (IC50). For the same molecule, the “Ratio CC50/IC50” value in data set [4] is 8.3.
In the same order, the values of `N#Cc1ccc2c(c1)nc(C(Cl)(Cl)Cl)c1cccn12` are 17 µM, 1.5 µM and 11.3.
In turn, `O=C(O)c1ccc2c(c1)nc(C(Cl)(Cl)Cl)c1cccn12` gave a CC50 at 72 h in data set [1] of 106 µM. This molecule also returned an IC50 in data set [3] of 22 µM. Further, in data set [4], the “Ratio CC50/IC50” value was below 10.6.
Regarding `N/C(=N/O)c1ccc2c(c1)nc(C(Cl)(Cl)Cl)c1cccn12`, the CC50 at 72 h in data set [1] was above 15 µM. In data set [3], the IC50 amounted to 1.75 µM. In addition, in data set [4], the “Ratio CC50/IC50” value is on record as above 8.6.
Taken in the same sequence, the figures for `Cc1nc2ccccc2n2cccc12` were 120 µM, above 50 µM and below 2.4.
In the same order, the values of `Cc1ccc2c(c1)nc(C)c1cccn12` are 57 µM, above 50 µM and below 4.7.
The molecule `Cc1nc2cc(C#N)ccc2n2cccc12` showed a cytotoxic concentration (CC50) at 72 h in data set [1] above 31.5 µM. In data set [3], the IC50 is above 50 µM.
`FC(F)(F)c1nc2ccccc2n2cccc12` had a cytotoxic concentration (CC50) at 72 h in data set [1] of 160 µM. This molecule also returned an IC50 in data set [3] above 50 µM. Further, in data set [4], the “Ratio CC50/IC50” value is on record as below 3.2.
In data set [1], `Cc1nccc2ccccc12` registered a cytotoxic concentration (CC50) at 72 h of 179 µM. In data set [3], this molecule yielded an IC50 above 50 µM. In data set [4], the “Ratio CC50/IC50” value is below 3.6.
In data set [3], `C[C@H]1c2cccc(O)c2C(=O)C2=C(O)[C@]3(O)C(=O)C(C(N)=O)=C(O)[C@@H](N(C)C)[C@@H]3[C@@H](O)[C@@H]21.O` [DOXYCYCLINE] showed an IC50 of 6 µM. Besides, the “Ratio CC50/IC50” value in data set [4] stood at 3.3.
In data set [1], `Cc1ccc2ccccc2n1` [QUINALDINE] showed a cytotoxic concentration (CC50) at 72 h above 500 µM. For the same molecule, in data set [3], the half-maximal inhibitory concentration (IC50) was above 50 µM.
Taken in the same sequence, the figures for `c1ccc2nccnc2c1` [QUINOXALINE] were above 500 µM and above 50 µM.
